From patent publication US20230264009A1, “DISINFECTING CAP KIT FOR LUER ACCESS DEVICES” (SterileCare Inc., priority 2022, published 2023)
Structures can show the parent of a compound that is named as a salt.

Tests used:
MRSA ON184 [1] = assay: Checkerboard titration, FMCI; format: cell-based, Staphylococcus aureus
Method: (§1) An assay was made using a minimum inhibitory concentration (MIC) and minimum bactericidal concentration (MBC) and minimum fungicidal concentration (MFC) determination. The MIC was determined by the micro broth dilution method in 96-well plates. Serial two-fold dilutions of tetrasodium EDTA (from 2% to 0.015%), ethanol (from 50% to 0.1%) and chlorhexidine HCl (from 100 µg/mL to 0.025 µg/mL) were prepared in MH broth with a final volume of 90 µL per well. A 10 µL containing 1 × 10^5 bacterial cells or 2 × 10^3 fungal cells were added to each well. The inoculated plates were covered with a lid, sealed with Parafilm, and incubated for 24 h at 37° C. with slight rocking on a tilting platform shaker. After incubation, the optical density at 600 nm (OD 600 ) of the cultures in each well was measured using an xMark™ Microplate Absorbance Spectrophotometer (Bio-Rad). […] MBCs and MFCs were determined by transferring 100 µL from each well with no apparent growth onto appropriate agar plates, followed by incubation for 24 h at 37° C.
(§2) A fourth composition and solution included tetrasodium EDTA with ethanol or chlorhexidine HCl. This fourth composition and solution were created using checkerboard titration methods using micro broth dilution in 96-well microtiter plates. The concentrations of antimicrobials used were based on previously determined MIC values. Briefly, 200 µL of two-fold dilutions of tetrasodium EDTA and ethanol or chlorhexidine HCl were prepared in MH or MH II broth with standardized cell suspension. […] Microtiter plates were incubated at 37° C. for 24 h, and the results were analyzed. Each test was performed in duplicate and included a growth control without adding any antimicrobials.

E. coli SK2 [2] = assay: Checkerboard titration, FICI; format: cell-based, Escherichia coli; conditions: tetrasodium EDTA + chlorhexidine HCl
Method: as §2

[3] = tested on: Pseudomonas aeruginosa SK1; assay: Checkerboard titration, FMCI; format: cell-based; conditions: tetrasodium EDTA + chlorhexidine HCl; P. aeruginosa SK1
Method: as §1, §2

[4] = tested on: Staphylococcus aureus ON89; assay: Checkerboard titration, FMCI; format: cell-based; conditions: S. aureus ON89
Method: as §1, §2

[5] = tested on: Staphylococcus epidermidis ON170; assay: Checkerboard titration, FMCI; format: cell-based; conditions: S. epidermidis ON170
Method: as §1, §2

Serratia marcescens SK2 [6] = assay: Checkerboard titration, FMCI; format: cell-based; conditions: S. marcescens SK2
Method: as §1, §2

Proteus mirabilis ON153 [7] = assay: Checkerboard titration, FMCI; format: cell-based; conditions: P. mirabilis ON153
Method: as §1, §2

Candida albicans SK4b [8] = assay: Checkerboard titration, FMCI; format: cell-based; conditions: C. albicans SK4b
Method: as §1, §2

Escherichia coli ON29 [9] = assay: Checkerboard titration, FMCI; format: cell-based; conditions: tetrasodium EDTA + chlorhexidine HCl; E. coli ON29
Method: as §1, §2

[10] = tested on: Stenotrophomonas maltophilia ON17; assay: Checkerboard titration, FMCI; format: cell-based; conditions: S. maltophilia ON17
Method: as §1, §2

[11] = tested on: 48-h-old biofilms of bacterial and fungal strains; assay: MBEC Assay, 24 h exposure (summary); format: cell-based; conditions: following 24 h of treatment
Method: A biofilm cultivation cell composition was provided. This fifth composition was created using an MBEC Assay® biofilm inoculator, consisting of a polystyrene lid with 96 downward-protruding pegs and a corresponding base used to grow biofilms. A standardized inoculum was diluted in an appropriate biofilm growth medium to achieve a viable cell count of 1.5 × 10^6 CFU/mL of bacterial cells or […] CFU/mL of fungal cells. Then, 150 µL of this inoculum was transferred into each appropriate well, and the peg lids were inserted into the microtiter plates. The plates were sealed with Parafilm and were incubated at optimum temperature for 48 h with slight rocking for bacteria and shaking at 200 rpm for fungal strains. After incubation, the peg lid was removed from the base and rinsed twice with sterile phosphate-buffered saline (PBS) for 2 min to remove loosely attached non-sessile cells. Before the antimicrobial challenge, the pegs in column 1 (n = 8) were considered the biofilm growth control; these pegs were removed from the lids, placed into 200 µL of recovery medium, and analyzed for starting biofilm cell numbers as described below. […] After the antimicrobial challenge, the pegs were rinsed twice with sterile PBS for 2 min and placed into a new 96-well plate containing 200 µL of recovery medium. The recovery plates were sealed with Parafilm, and biofilm cells were dislodged from the pegs by sonication for 30 min with a Branson 3510 bath sonicator. The biofilm cells in the recovery medium were serially diluted, and a drop dilution assay was performed to enumerate the viable cells. MBEC values were determined as the minimum concentration of antimicrobials that yielded a viable cell count at or lower than the 125 CFU/mL detection limit.

C. albicans ON47 [12] = assay: Checkerboard titration, FMCI; format: cell-based, Candida albicans
Method: as §1, §2

S. epidermidis SK9 [13] = assay: Checkerboard titration, FMCI; format: cell-based, Staphylococcus epidermidis
Method: as §1, §2

[14] = tested on: Pseudomonas aeruginosa SK1; assay: Checkerboard titration, FICI; format: cell-based; conditions: tetrasodium EDTA + chlorhexidine HCl; P. aeruginosa SK1
Method: as §2

[15] = tested on: Staphylococcus aureus ON89; assay: Checkerboard titration, FICI; format: cell-based; conditions: S. aureus ON89
Method: as §2

[16] = tested on: Staphylococcus epidermidis ON170; assay: Checkerboard titration, FICI; format: cell-based; conditions: S. epidermidis ON170
Method: as §2

Serratia marcescens SK2 [17] = assay: Checkerboard titration, FICI; format: cell-based; conditions: tetrasodium EDTA + chlorhexidine HCl; S. marcescens SK2
Method: as §2

Proteus mirabilis ON153 [18] = assay: Checkerboard titration, FICI; format: cell-based; conditions: P. mirabilis ON153
Method: as §2

Candida albicans SK4b [19] = assay: Checkerboard titration, FICI; format: cell-based; conditions: C. albicans SK4b
Method: as §2

Escherichia coli ON29 [20] = assay: Checkerboard titration, FICI; format: cell-based; conditions: tetrasodium EDTA + chlorhexidine HCl; E. coli ON29
Method: as §2

[21] = tested on: Stenotrophomonas maltophilia ON17; assay: Checkerboard titration, FICI; format: cell-based; conditions: S. maltophilia ON17
Method: as §2

MRSA ON184 [22] = assay: Checkerboard titration, FICI; format: cell-based, Staphylococcus aureus
Method: as §2

C. albicans ON47 [23] = assay: Checkerboard titration, FICI; format: cell-based, Candida albicans
Method: as §2

E. coli SK2 [24] = assay: Checkerboard titration, FMCI; format: cell-based, Escherichia coli; conditions: tetrasodium EDTA + chlorhexidine HCl
Method: as §1, §2

[25] = tested on: 48-h old biofilms of test organisms; assay: Rapid biofilm eradication, 2 h exposure; format: cell-based; conditions: alone at the MBEC
Method: Determining rapid biofilm eradication by tetrasodium EDTA, ethanol, and chlorhexidine HCl alone and in combination was performed. After biofilm formation, control pegs (n = 6) were removed and analyzed to determine the starting biofilm cell numbers via the drop dilution method. The 48-h old biofilms on the pegs were exposed to different concentrations of test antimicrobials, dissolved in an appropriate growth medium, for two h to evaluate their efficacy alone and in combination. Antimicrobial solutions tested against each organism included each agent alone at the MBEC, double combinations at the FBEC, and triple combinations ranging from 5 to 20% ethanol, 2.5-5 µg/mL chlorhexidine HCl and 1- 3% tetrasodium EDTA. Following treatment, pegs were washed twice with sterile PBS, and the biofilm cells were dislodged into recovery medium and enumerated as described above.
The method for rapid biofilm eradication ability of test antimicrobials alone and in combination against 48-h-old biofilms within two h exposure time included (1) choosing different concentrations of test antimicrobials to assess their potency in eradicating preformed biofilms of study organisms within two h. Then (2) the quantitative recovery from biofilms following exposure to the antimicrobial solutions for bacterial strains (FIGS. 6A-6C) and fungal strains (FIG. 7) was evaluated.

S. epidermidis SK9 [26] = assay: Checkerboard titration, FICI; format: cell-based, Staphylococcus epidermidis
Method: as §2

C. albicans ON47 biofilm = assay: FBEC index, checkerboard dilution on biofilms; format: cell-based, Candida albicans; conditions: tetrasodium EDTA + ethanol
Method: (§3) In step (4), microtiter plates are incubated at 37° C. for 24 h. then (6), after incubation, the bacterial and fungal cells were dislodged from the pegs into the recovery medium described above.
(§4) Three 10-µL aliquots, for a total of 30 µL from each well of recovery medium, were spotted on MH agar plates and incubated for 24 h at 37° C. […] The FBEC determination is a modification of the FICI.

[27] = tested on: Candida albicans SK4b biofilm; assay: FBEC index, checkerboard dilution on biofilms; format: cell-based; conditions: tetrasodium EDTA + ethanol; C. albicans SK4b biofilm
Method: as §3, §4

[28] = tested on: Staphylococcus epidermidis SK9 biofilm; assay: FBEC index, checkerboard dilution on biofilms; format: cell-based; conditions: tetrasodium EDTA + ethanol; S. epidermidis SK9 biofilm
Method: as §3, §4

[29] = tested on: Escherichia coli SK2 biofilm; assay: FBEC index, checkerboard dilution on biofilms; format: cell-based; conditions: tetrasodium EDTA + ethanol; E. coli SK2 biofilm
Method: as §3, §4

MRSA ON184 biofilm = assay: FBEC index, checkerboard dilution on biofilms; format: cell-based, Staphylococcus aureus; conditions: tetrasodium EDTA + ethanol
Method: as §3, §4

[30] = tested on: Staphylococcus aureus ON89 biofilm; assay: FBEC index, checkerboard dilution on biofilms; format: cell-based; conditions: tetrasodium EDTA + ethanol; S. aureus ON89 biofilm
Method: as §3, §4

[31] = tetrasodium EDTA + chlorhexidine HCl

[H]/N=C(\N/C(=N/[H])NCCCCCCNC(=N)NC(=N)Nc1ccc(Cl)cc1)Nc1ccc(Cl)cc1 [Chlorhexidine HCl, chlorhexidine HCl]
0.05 µg/mL: Concentration in combination giving FICI [16, 31]
0.8 µg/mL: Concentration in combination giving FMCI (Candida albicans SK4b [8]; [31]) | Concentration in combination giving FICI [14] | Concentration in combination giving FICI (Proteus mirabilis ON153 [18]; [31]) | Concentration in combination giving FICI (Candida albicans SK4b [19]; [31]) | Concentration in combination giving FICI (C. albicans ON47 [23]; [31])
0.025 µg/mL: Concentration in combination giving FICI (S. epidermidis SK9 [26]; [31])
0.2 µg/mL: Concentration in combination giving FMCI [4, 31] | Concentration in combination giving FMCI (Escherichia coli ON29 [9]) | Concentration in combination giving FICI (Escherichia coli ON29 [20]) | Concentration in combination giving FICI [21, 31] | Concentration in combination giving FICI (MRSA ON184 [22]; [31]) | Concentration in combination giving FMCI (E. coli SK2 [24])
0.4 µg/mL: Concentration in combination giving FMCI (MRSA ON184 [1]; [31]) | Concentration in combination giving FMCI [5, 31] | Concentration in combination giving FMCI [10, 31] | Concentration in combination giving FMCI (S. epidermidis SK9 [13]; [31])
1.5 µg/mL: Concentration in combination giving FICI (Serratia marcescens SK2 [17])
failed to eradicate: Eradication of preformed biofilms [25]
100 µg/mL: Concentration alone able to eradicate all established biofilms [11]
1.6 µg/mL: Concentration in combination giving FMCI [3] | Concentration in combination giving FMCI (Serratia marcescens SK2 [6]; [31]) | Concentration in combination giving FMCI (Proteus mirabilis ON153 [7]; [31]) | Concentration in combination giving FMCI (C. albicans ON47 [12]; [31])
0.1 µg/mL: Concentration in combination giving FICI (E. coli SK2 [2]) | Concentration in combination giving FICI [15, 31]

CCO [Ethanol, ethanol]
0.4 % w/v: Concentration in combination giving FICI ([15]; tetrasodium EDTA + ethanol) | Concentration in combination giving FICI ([16]; tetrasodium EDTA + ethanol) | Concentration in combination giving FICI ([21]; tetrasodium EDTA + ethanol) | Concentration in combination giving FICI (MRSA ON184 [22]; tetrasodium EDTA + ethanol) | Concentration in combination giving FICI (C. albicans ON47 [23]; tetrasodium EDTA + ethanol) | Concentration in combination giving FICI (S. epidermidis SK9 [26]; tetrasodium EDTA + ethanol)
1.6 % w/v: Concentration in combination giving FMCI ([5]; tetrasodium EDTA + ethanol) | Concentration in combination giving FMCI ([10]; tetrasodium EDTA + ethanol) | FBEC (concentration in combination) (C. albicans ON47 biofilm) | FBEC (concentration in combination) [27] | FBEC (concentration in combination) [28] | FBEC (concentration in combination) [29] | FBEC (concentration in combination) (MRSA ON184 biofilm) | Concentration in combination giving FICI (Proteus mirabilis ON153 [18]; tetrasodium EDTA + ethanol) | Concentration in combination giving FICI (Candida albicans SK4b [19]; tetrasodium EDTA + ethanol)
5%: Concentration alone able to eradicate all established biofilms [11]
failed to eradicate: Eradication of preformed biofilms [25]
0.8 % w/v: FBEC (concentration in combination) [30]
3.125 % w/v: Concentration in combination giving FMCI (MRSA ON184 [1]; tetrasodium EDTA + ethanol) | Concentration in combination giving FMCI ([4]; tetrasodium EDTA + ethanol) | Concentration in combination giving FMCI (Candida albicans SK4b [8]; tetrasodium EDTA + ethanol) | Concentration in combination giving FMCI (C. albicans ON47 [12]; tetrasodium EDTA + ethanol) | Concentration in combination giving FMCI (S. epidermidis SK9 [13]; tetrasodium EDTA + ethanol)
6.25 % w/v: Concentration in combination giving FMCI (Serratia marcescens SK2 [6]; tetrasodium EDTA + ethanol) | Concentration in combination giving FMCI (Proteus mirabilis ON153 [7]; tetrasodium EDTA + ethanol)
